Laboratory results reported in patent US10988477B2 (Merck Patent GmbH, priority 2018, dated 2021).

Experiments:
GCN2 kinase = GCN2 kinase (Homo sapiens, UniProt Q9P2K8); test: GCN2 enzyme inhibition assay (Transcreener ADP2 fluorescence polarization); type: biochemical; conditions: compounds of Formula II; 280 μM ATP, 4 nM GCN2 kinase
Summary of the method: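 4 nM GCN2 + 200 μM (RS)7 + compound (0–8 μM), 10 min preinc.; start with ATP (280 μM final); 1 h, 25 °C; pH 7.5 Tris/NaCl/MgCl2/DTT; ADP FP readout; IC50, Ki(app) via tight-binding fit.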

[1] = molecular target: intracellular GCN2 (phosphorylation of the GCN2 substrate eIF2α) (Homo sapiens, UniProt Q9P2K8); test: GCN2 cellular inhibition assay (AlphaScreen SureFire P-eIF2α Ser51, borrelidin-treated U2OS cells); type: cell-based; conditions: compounds of Formula II; biomarker assay, phosphorylated eIF2α Ser51 in borrelidin-treated U2OS cells
Summary of the method: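 Phospho-eIF2α (Ser51) in lysates was quantified by AlphaScreen SureFire after a 1 h, 37 °C treatment of U2OS cells with 10 μM borrelidin and compound at 4-fold dilutions starting from 40 μM final. Inhibition expressed in percent against wells stimulated by borrelidin alone.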

GCN2 kinase, sequence (Q9P2K8 whole entry): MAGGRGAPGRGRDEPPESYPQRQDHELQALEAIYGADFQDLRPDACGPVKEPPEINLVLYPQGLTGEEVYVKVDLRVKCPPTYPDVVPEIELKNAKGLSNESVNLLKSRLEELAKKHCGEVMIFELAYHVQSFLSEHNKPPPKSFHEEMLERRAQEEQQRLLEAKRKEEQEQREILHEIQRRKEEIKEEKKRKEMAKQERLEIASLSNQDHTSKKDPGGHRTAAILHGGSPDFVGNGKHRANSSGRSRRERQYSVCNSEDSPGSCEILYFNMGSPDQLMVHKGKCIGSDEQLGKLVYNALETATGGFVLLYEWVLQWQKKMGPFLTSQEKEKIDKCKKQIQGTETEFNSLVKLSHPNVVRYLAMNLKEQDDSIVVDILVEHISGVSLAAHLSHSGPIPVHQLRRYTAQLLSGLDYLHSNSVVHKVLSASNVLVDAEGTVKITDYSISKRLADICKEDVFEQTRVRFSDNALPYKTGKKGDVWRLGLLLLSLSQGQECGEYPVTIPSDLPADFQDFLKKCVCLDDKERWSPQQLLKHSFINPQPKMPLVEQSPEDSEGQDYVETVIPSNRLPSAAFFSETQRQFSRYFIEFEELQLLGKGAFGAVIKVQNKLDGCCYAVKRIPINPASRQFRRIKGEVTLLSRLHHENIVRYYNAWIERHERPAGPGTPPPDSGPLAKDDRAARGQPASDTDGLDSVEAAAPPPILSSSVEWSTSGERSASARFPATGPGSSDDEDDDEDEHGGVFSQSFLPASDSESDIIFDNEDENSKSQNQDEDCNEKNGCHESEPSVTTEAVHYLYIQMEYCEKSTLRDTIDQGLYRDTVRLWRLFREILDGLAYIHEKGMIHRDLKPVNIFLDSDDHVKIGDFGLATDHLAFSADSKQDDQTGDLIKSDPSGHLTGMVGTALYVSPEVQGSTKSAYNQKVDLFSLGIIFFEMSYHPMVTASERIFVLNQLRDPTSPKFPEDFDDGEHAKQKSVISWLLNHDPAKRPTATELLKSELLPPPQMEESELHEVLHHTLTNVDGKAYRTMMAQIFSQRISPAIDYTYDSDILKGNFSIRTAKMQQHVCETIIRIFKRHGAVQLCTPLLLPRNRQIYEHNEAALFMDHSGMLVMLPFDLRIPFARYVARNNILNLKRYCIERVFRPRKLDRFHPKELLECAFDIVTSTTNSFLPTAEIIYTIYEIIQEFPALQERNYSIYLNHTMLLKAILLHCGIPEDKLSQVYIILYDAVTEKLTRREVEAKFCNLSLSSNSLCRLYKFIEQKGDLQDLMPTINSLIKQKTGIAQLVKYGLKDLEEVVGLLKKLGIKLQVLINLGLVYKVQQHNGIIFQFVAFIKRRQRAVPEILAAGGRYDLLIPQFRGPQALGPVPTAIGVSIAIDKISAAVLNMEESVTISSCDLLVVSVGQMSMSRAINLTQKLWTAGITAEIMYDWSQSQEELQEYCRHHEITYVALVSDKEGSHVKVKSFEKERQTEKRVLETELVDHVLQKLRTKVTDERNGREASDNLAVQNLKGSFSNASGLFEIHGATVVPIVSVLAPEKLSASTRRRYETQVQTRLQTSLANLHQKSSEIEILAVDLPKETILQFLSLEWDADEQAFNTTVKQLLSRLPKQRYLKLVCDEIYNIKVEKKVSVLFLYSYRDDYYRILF
intracellular GCN2 (phosphorylation of the GCN2 substrate eIF2α), sequence (Q9P2K8 whole entry): as above

| Structure (SMILES) | Ki (GCN2 kinase) [nM] | IC50 [1] [nM] |
| --- | --- | --- |
| O=S(=O)(N[C@H]1CCCN(c2cc(-c3cnc4ccc(C(F)F)nn34)ncn2)C1)C1COC1 [II-419, (S)—N-(1-(6-(6-(Difluoromethyl)imidazo[1,2-b]pyridazin-3-yl)pyrimidin-4-yl)piperidin-3-yl)oxetane-3-sulfonamide] | 10 to 1000 | 500 to 5000 |
| CNS(=O)(=O)N[C@H]1CCCN(c2cc(-c3cnc4ccc(C(F)F)nn34)ncn2)C1 [II-422, (S)-1-(1-(6-(6-(Difluoromethyl)imidazo[1,2-b]pyridazin-3-yl)pyrimidin-4-yl)piperidin-3-yl)-3-methylsulfuric diamide] | 10 to 1000 | < 500 |
| CC1CN(C)C(CNS(C)(=O)=O)CN1c1cc(-c2cnc3ccc(C(F)F)nn23)ncn1 (centres unmarked) [II-423, N-((4-(6-(6-(Difluoromethyl)imidazo[1,2-b]pyridazin-3-yl)pyrimidin-4-yl)-1,5-dimethylpiperazin-2-yl)methyl)methanesulfonamide] | 10 to 1000 | > 5000 |
| CC1C(CS(N)(=O)=O)CCCN1c1cc(-c2cnc3ccc(C(F)F)nn23)ncn1 (centres unmarked) [II-424, (1-(6-(6-(Difluoromethyl)imidazo[1,2-b]pyridazin-3-yl)pyrimidin-4-yl)-2-methylpiperidin-3-yl)methanesulfonamide] | < 10 | < 500 |
| CC1C(CS(C)(=O)=O)OCCN1c1cc(-c2cnc3ccc(C(F)F)nn23)ncn1 (centres unmarked) [II-426, 4-(6-(6-(Difluoromethyl)imidazo[1,2-b]pyridazin-3-yl)pyrimidin-4-yl)-3-methyl-2-((methylsulfonyl)methyl)morpholine] | 10 to 1000 | 500 to 5000 |
| CS(=O)(=O)NCC1CC(N2CC(F)C2)CN(c2cc(-c3cnc4ccc(C(F)F)nn34)ncn2)C1 (centres unmarked) [II-428, N-((1-(6-(6-(Difluoromethyl)imidazo[1,2-b]pyridazin-3-yl)pyrimidin-4-yl)-5-(3-fluoroazetidin-1-yl)piperidin-3-yl)methyl)methanesulfonamide] | 10 to 1000 | > 5000 |
| CC1C(CNS(C)(=O)=O)C(F)(F)CCN1c1cc(-c2cnc3ccc(C(F)F)nn23)ncn1 (centres unmarked) [II-431, N-((1-(6-(6-(Difluoromethyl)imidazo[1,2-b]pyridazin-3-yl)pyrimidin-4-yl)-4,4-difluoro-2-methylpiperidin-3-yl)methyl)methanesulfonamide] | < 10 | < 500 |
| CC1CC(F)(F)C(CNS(C)(=O)=O)CN1c1cc(-c2cnc3ccc(C(F)F)nn23)ncn1 (centres unmarked) [II-434, N-((1-(6-(6-(Difluoromethyl)imidazo[1,2-b]pyridazin-3-yl)pyrimidin-4-yl)-4,4-difluoro-6-methylpiperidin-3-yl)methyl)methanesulfonamide] | 10 to 1000 | > 5000 |
| CS(=O)(=O)NC1(C2CCN(c3cc(-c4cnc5ccc(C(F)F)nn45)ncn3)C2)CC1 (centres unmarked) [II-439, N-(1-(1-(6-(6-(Difluoromethyl)imidazo[1,2-b]pyridazin-3-yl)pyrimidin-4-yl)pyrrolidin-3-yl)cyclopropyl)methanesulfonamide] | 10 to 1000 | 500 to 5000 |
| CS(=O)(=O)NCC1CN(c2cc(-c3cnc4ccc(C(F)F)nn34)ncn2)CC(C2CC2)O1 (centres unmarked) [II-441, N-((6-Cyclopropyl-4-(6-(6-(difluoromethyl)imidazo[1,2-b]pyridazin-3-yl)pyrimidin-4-yl)morpholin-2-yl)methyl)methanesulfonamide] | 10 to 1000 | 500 to 5000 |

Results, then the compound that gave them:

| Ki (GCN2 kinase) [nM] | IC50 [1] [nM] | Structure (SMILES) |
| --- | --- | --- |
| 10 to 1000 | 500 to 5000 | O=S(=O)(CC1CC1)N[C@H]1CCCN(c2cc(-c3cnc4ccc(C(F)F)nn34)ncn2)C1 [II-420, (S)-1-Cyclopropyl-N-(1-(6-(6-(difluoromethyl)imidazo[1,2-b]pyridazin-3-yl)pyrimidin-4-yl)piperidin-3-yl)methanesulfonamide] |
| 10 to 1000 | 500 to 5000 | CCS(=O)(=O)N[C@H]1CCCN(c2cc(-c3cnc4ccc(C(F)F)nn34)ncn2)C1 [II-421, (S)—N-(1-(6-(6-(Difluoromethyl)imidazo[1,2-b]pyridazin-3-yl)pyrimidin-4-yl)piperidin-3-yl)ethanesulfonamide] |
| 10 to 1000 | 500 to 5000 | CC1C(CS(C)(=N)=O)OCCN1c1cc(-c2cnc3ccc(C(F)F)nn23)ncn1 (centres unmarked) [II-425, ((4-(6-(6-(Difluoromethyl)imidazo[1,2-b]pyridazin-3-yl)pyrimidin-4-yl)-3-methylmorpholin-2-yl)methyl)(imino)(methyl)-λ^6-sulfanone] |
| < 10 | < 500 | CC1CN(c2cc(-c3cnc4ccc(C(F)F)nn34)ncn2)C(C)C(CNS(C)(=O)=O)N1 (centres unmarked) [II-427, N-((4-(6-(6-(Difluoromethyl)imidazo[1,2-b]pyridazin-3-yl)pyrimidin-4-yl)-3,6-dimethylpiperazin-2-yl)methyl)methanesulfonamide] |
| 10 to 1000 | > 5000 | CS(=O)(=O)NCC1CC(N2CC(F)C2)CN(c2cc(-c3cnc4ccc(C(F)F)nn34)ncn2)C1 (centres unmarked) [II-429, N-((1-(6-(6-(Difluoromethyl)imidazo[1,2-b]pyridazin-3-yl)pyrimidin-4-yl)-5-(3-fluoroazetidin-1-yl)piperidin-3-yl)methyl)methanesulfonamide] |
| 10 to 1000 | 500 to 5000 | CS(=O)(=O)CC1CCCN(c2cc(-c3cnc4ccc(C(F)F)nn34)ncn2)C1 (centres unmarked) [II-430, 6-(Difluoromethyl)-3-(6-(3-((methylsulfonyl)methyl)piperidin-1-yl)pyrimidin-4-yl)imidazo[1,2-b]pyridazine] |
| < 10 | < 500 | CC1C(CNS(C)(=O)=O)C(F)(F)CCN1c1cc(-c2cnc3ccc(C(F)F)nn23)ncn1 (centres unmarked) [II-432, N-((1-(6-(6-(Difluoromethyl)imidazo[1,2-b]pyridazin-3-yl)pyrimidin-4-yl)-4,4-difluoro-2-methylpiperidin-3-yl)methyl)methanesulfonamide] |
| < 10 | < 500 | CC1CC(F)(F)C(CNS(C)(=O)=O)CN1c1cc(-c2cnc3ccc(C(F)F)nn23)ncn1 (centres unmarked) [II-433, N-((1-(6-(6-(Difluoromethyl)imidazo[1,2-b]pyridazin-3-yl)pyrimidin-4-yl)-4,4-difluoro-6-methylpiperidin-3-yl)methyl)methanesulfonamide] |
| 10 to 1000 | > 5000 | O=S(=O)(N[C@H]1CCCN(c2cc(-c3cnc4ccc(C(F)F)nn34)ncn2)C1)C1CNC1 [II-435, (S)—N-(1-(6-(6-(Difluoromethyl)imidazo[1,2-b]pyridazin-3-yl)pyrimidin-4-yl)piperidin-3-yl)azetidine-3-sulfonamide] |
| 10 to 1000 | 500 to 5000 | OCC12CC1CN(c1cc(-c3cnc4ccc(C(F)F)nn34)ncn1)C2 (centres unmarked) [II-438, (3-(6-(6-(Difluoromethyl)imidazo[1,2-b]pyridazin-3-yl)pyrimidin-4-yl)-3-azabicyclo[3.1.0]hexan-1-yl)methanol] |
| 10 to 1000 | 500 to 5000 | CS(=O)(=O)NCC1CN(c2cc(-c3cnc4ccc(C(F)F)nn34)ncn2)CC(C2CC2)O1 (centres unmarked) [II-440, N-((6-Cyclopropyl-4-(6-(6-(difluoromethyl)imidazo[1,2-b]pyridazin-3-yl)pyrimidin-4-yl)morpholin-2-yl)methyl)methanesulfonamide] |
| 10 to 1000 | > 5000 | O=S(=O)(N[C@H]1CCCN(c2cc(-c3cnc4ccc(C(F)F)nn34)ncn2)C1)C1CC1 [II-442, (S)—N-(1-(6-(6-(Difluoromethyl)imidazo[1,2-b]pyridazin-3-yl)pyrimidin-4-yl)piperidin-3-yl)cyclopropanesulfonamide] |
